Measured values from patent US8501842B2, “Polypropylene resin composition and molded article” (Sumitomo Chemical Company, Limited, priority 2007, dated 2013).

test: Weight loss by thermogravimetric analysis (TG-DTA); format: physicochemical; details: room temperature to 300° C. at 10° C./min, nitrogen gas atmosphere (100 ml/min)
Method: Regarding requirement (c), from the viewpoint of the staining of a mold, the emitted amount of VOC, and the stability against photodegradation, the weight loss measured in a thermogravimetric analysis at a temperature of 300° C. under a nitrogen gas atmosphere preferably is less than 5% by weight, and more preferably is less than 3% by weight. The weight loss measured by the thermogravimetric analysis of a hindered amine light stabilizer (C) is a value determined by using a thermo gravimetry differential thermal analyzer (TG-DTA). Described concretely, it is a weight loss rate determined using a thermobalance when the temperature of a hindered amine light stabilizer (C) is increased from room temperature to 300° C. at a rate of 10° C. per minute under a nitrogen gas atmosphere (in a nitrogen flow at a flow rate of 100 ml/min).
The weight loss by thermogravimetric analysis (TG-DTA) of a hindered amine light stabilizer was measured with a thermo gravimetry differential thermal analyzer from room temperature to 300° C. at a temperature increasing rate of 10° C./min under a nitrogen gas atmosphere (100 ml/min).

Compound | Weight loss by thermogravimetric analysis (TG-DTA) [% by weight]
CN1C(C)(C)CC(OC(=O)CC(C(=O)OC2CC(C)(C)N(C)C(C)(C)C2)C(CC(=O)OC2CC(C)(C)N(C)C(C)(C)C2)C(=O)OC2CC(C)(C)N(C)C(C)(C)C2)CC1(C)C (stereo not drawn) [Example C-2, Tetrakis(1,2,2,6,6-pentamethyl-4-piperidyl) 1,2,3,4-butanetetracarboxylate] | 5.8
CC(C)(C)c1ccc(OC(=O)c2cc(C(C)(C)C)c(O)c(C(C)(C)C)c2)c(C(C)(C)C)c1 [Example C-3, 2,4-Di-tert-butylphenyl 3,5-di-tert-butyl-4-hydroxybenzoate] | 31.6
Condensate of N,N-bis(3-aminopropyl)ethylenediamine-2,4-bis[N-butyl-N-(1,2,2,6,6-pentamethyl-4-piperidyl)amino]-6-chloro-1,3,5-triazine [Example C-5] | 0.6
